The values that follow come from ChEMBL document CHEMBL3091367, “Synthesis and evaluation of the apoptosis inducing and CT DNA interaction properties of a series of 4β-carbamoyl 4'-O-demethylepipodophyllotoxins” (Eur J Med Chem, 2013).

Bounds are passed on as bounds.

Common to all, as to assay type: functional, cell-based
One experiment has as its system A549. The experiment can be described thus: Cytotoxicity against human A549 cells after 48 hrs by MTT assay. The settings on record: A549, 48 h. In general terms: Tetrazolium dyes change colour on reduction, which living cells bring about.
A further experiment relates to HeLa. Description: Cytotoxicity against human HeLa cells after 48 hrs by MTT assay.
The nature of experiment [1]: Cytotoxicity against human HCT8 cells after 48 hrs by MTT assay. The settings on record: HCT-8, 48 h.
The test system of the next experiment is HL-60. The experiment can be described thus: Cytotoxicity against human HL60 cells after 48 hrs by cell counting kit-8 assay. The note with it: HL-60, 48 h.

Take `COc1cc([C@@H]2c3cc4c(cc3[C@@H](OC(=O)N3CCOCC3)[C@H]3COC(=O)[C@H]23)OCO4)cc(OC)c1O`: the IC50 was 8550 nM in the experiment on A549, 8590 nM in the experiment with HeLa, 150 nM in experiment [1] and 10 nM with HL-60.

As for `COc1cc([C@@H]2c3cc4c(cc3[C@@H](OC(=O)N3CCN(c5ccc(F)cc5)CC3)[C@H]3COC(=O)[C@H]23)OCO4)cc(OC)c1O`, the IC50 in the experiment with A549 turned out to be 5240 nM; with HeLa, 1580 nM; in experiment [1], 10 nM; in the experiment with HL-60, 330 nM.

Regarding `COc1cc([C@@H]2c3cc4c(cc3[C@@H](OC(=O)N[C@@H](C)C(=O)N3CCN(c5ccc([N+](=O)[O-])cc5)CC3)[C@H]3COC(=O)[C@H]23)OCO4)cc(OC)c1O`, the IC50 with A549 is 19000 nM; in the experiment on HeLa, over 100000 nM; in experiment [1], 710 nM; in the experiment with HL-60 it was 130 nM.

With `COc1cc([C@@H]2c3cc4c(cc3[C@@H](OC(=O)N3CCN(c5ccc([N+](=O)[O-])cc5)CC3)[C@H]3COC(=O)[C@H]23)OCO4)cc(OC)c1OC(=O)N1CCN(c2ccc([N+](=O)[O-])cc2)CC1`, the figures for the IC50 (in the experiment with A549; in experiment [1]; in the experiment with HL-60) were 56900 nM, 10 nM and 350 nM, respectively.

In the case of `COc1cc([C@@H]2c3cc4c(cc3[C@@H](OC(=O)N3CCOCC3)[C@H]3COC(=O)[C@H]23)OCO4)cc(OC)c1OC(=O)N1CCOCC1`, the IC50 in the experiment on A549 was over 100000 nM; in the experiment on HeLa it was over 100000 nM; in experiment [1] it was 130 nM; in the experiment with HL-60, under 10 nM.

`COc1cc([C@@H]2c3cc4c(cc3[C@@H](OC(=O)N[C@H](CCSC)C(=O)N3CCN(c5ccc([N+](=O)[O-])cc5)CC3)[C@H]3COC(=O)[C@H]23)OCO4)cc(OC)c1O`: the concentration for half-maximal inhibition (IC50) in the experiment with A549 is over 100000 nM; in the experiment on HeLa, over 100000 nM; in experiment [1], 850 nM; in the experiment with HL-60 it was 20 nM.

With `COc1cc([C@@H]2c3cc4c(cc3[C@@H](OC(=O)N[C@H](Cc3ccccc3)C(=O)N3CCN(c5ccc([N+](=O)[O-])cc5)CC3)[C@H]3COC(=O)[C@H]23)OCO4)cc(OC)c1O`, the IC50 was over 100000 nM with A549, 28600 nM with HeLa, 70 nM in experiment [1] and 40 nM in the experiment on HL-60.

Turning to `COc1cc([C@@H]2c3cc4c(cc3[C@@H](OC(=O)N[C@@H](Cc3ccccc3)C(=O)N3CCN(c5ccc([N+](=O)[O-])cc5)CC3)[C@H]3COC(=O)[C@H]23)OCO4)cc(OC)c1O`, the IC50 amounted to 9550 nM in the experiment on A549, 4130 nM in the experiment with HeLa, 10 nM in experiment [1] and 30 nM in the experiment on HL-60.

With `COc1cc([C@@H]2c3cc4c(cc3[C@@H](OC(=O)NC3CCCCC3)[C@H]3COC(=O)[C@H]23)OCO4)cc(OC)c1O`, the half-maximal inhibitory concentration (IC50) is 26100 nM in the experiment with A549, 5400 nM in the experiment on HeLa, 1240 nM in experiment [1] and 270 nM in the experiment with HL-60.

Broadly, the IC50 is the point on the concentration scale where inhibition reaches its midpoint. High values mean a need for much substance, low ones inhibition by little substance.
